Measurements reported in patent US8318950B2, “N-acyl amino acid derivatives, a method for the preparation thereof, a pharmaceutical composition and use thereof as anti-allergic, anti-inflammatory and hypolipidemic agents” (Otkrytoe Aktsionernoe Obschestvo-Otechestvennye Lekarstva, priority 2005, dated 2012).

Tests used:
[1] = system: guinea pig blood basophils; assay: In vitro ovalbumin (OA)-induced blood basophil degranulation of immunized guinea pig; format: cell-based; conditions: for inhibition at 1000 µM / inhibition at 100 µM / inhibition at 10 µM: Cavia porcellus, read-out: Complete degranulation inhibition (CDI)
Procedure: Leukocytes from guinea pig blood were isolated according to the Freemel's method [Immunologicheskiye Metody under edition of G. Frimel/Moscow., “Meditsina” publishers, 1987, p. 222 in the inventor's modification].
Guinea pigs of both sexes weighing from 600 to 800 g were used to conduct the test. The animals were once immunized with a mixture of 10 μg ovalbumin and 100 mg aluminum hydroxide per one animal according to Andersson [Anderson P. Antigen-induced bronchial anaphylaxis in actively sensitized guinea-pigs.//Allergy. 1980. Vol. 35. P. 63-71].
Under ester anesthesia, 15 ml blood were drawn from guinea pig heart. Double precipitation of cells using EDTA and a citrate-containing precipitating liquid was used to isolate basophils in the leukocyte suspension.
Blood was mixed with 5% EDTA.Na2 2H2O (“Sigma”) solution at 9:1 ratio and in 30 minutes it was subjected to mild centrifugation (for 12 minutes at 80 g). Supernatant was collected and centrifuged for 15 minutes at 500 g.
To the remaining cells, a citrate-containing precipitating liquid (3) was added at proportion 3:10 (it was thermostated at 37° C. for 30 minutes). A supernatant fraction enriched by leukocytes was centrifuged for 7 minutes at 100 g. To leukocyte precipitate, 0.85% NaCl solution was added and cellular concentration was brought to 30×10^3 μl.
Protocol of the in vitro basophil degranulation test [Spravochnil po klinicheskim laboratomym metodam issledovaniya (A reference book on clinical-laboratory examination methods)/Edited by E. A. Cost/Moscow, “Meditsina” publishers, 1975, p. 130].
For the test, a centrifuge tube (3 tubes per each sample) was filled with 300 μl cellular suspension, then salt solution of a tested compound (or a salt solution in the control of spontaneous and maximum degranulation) was added and pre-incubated at 37° C. for 15 minutes, then into each tube 300 μl 1% OA solution was added (in the control of spontaneous degranulation a salt solution in the same amount was added) and once more pre-incubated at 37° C. for 10 minutes. Functional leukocyte concentration was 10^4/μl. Samples (100 μl) were taken off from each tube into separate tubes to assess a complete basophil degranulation, and to the remained cells, a cooled salt solution was added (5 ml into each tube) to arrest degranulation reaction, then the tubes were centrifuged for 7 min at 100 g, and from precipitate, preparations for microscopy were prepared. The preparations were fixed and stained according to the method of Seder et al. [Seder R. A. et al. Mouse splenic and bone marrow cell populations that express high—affinity Fcε receptors and produce interleukin-4 are highly enriched in basophils.//Proc. Natl. Acad. USA, 1991, V. 88, P. 2835-2839].
In order to detect a specific basophil granulation, the dye 0.5% alcyanic blue (pH 1.0) was used, nuclei were additionally stained with safranin (0.1% solution in 1% acetic acid). The preparations were used to assess a total degranulation inhibition.
A total degranulation inhibition (DI) (%) was calculated according to the formula: […]
max—% of degranulated basophils at the maximum degranulation (OA)
spontaneous—% of degranulated basophils in spontaneous degranulation (control)
experimental—% of degranulated basophils following exposure to the tested compound.
Assessment of a Complete Basophil Degranulation
Samples selected following basophil degranulation test (100 μl each) were poured into tubes with the dye (0.5% alcyane blue, pH 1.0) at ratio 1:1. Staining was carried out at room temperature for not less than 50 min. Stained basophils were calculated using the Fooks-Rosenthal chamber. Inhibition of a complete basophil degranulation (ICD) was calculated according to the formula: ICD(%)=1−[(Mm(c)−Mm(exper.)]/Mm(c)−Mm(OA)]×100, wherein
M m (c)—mean (by three samples) basophil number in the spontaneous basophil degranulation test
M±m (OA)—mean (by three samples) basophil number in the maximum antigen-induced basophil degranulation test; […]

[2] = system: endogenous hypercholesterolemia in guinea pigs; assay: Model of endogenous hypercholesterolemia in guinea pigs (fat loading); format: in vivo, guinea pig; parameters: Serum total cholesterol / Serum total triglyceride levels: unit not given here; conditions: for Serum total cholesterol / Serum total triglyceride levels: fat loading + compound 500 μg/kg orally
Procedure: The study was carried out on male guinea pigs (Aguti line) weighing 304±25 g. The experiment lasted 31 days. The control group included 6 guinea pigs (intact animals). The compounds studied were administered from day 1 of the experiment (from day 1 of administering fat loading).
The animals of experimental groups received orally for 31 days a compound studied and fat loading. The compound studied at doses indicated below was administered in the form of an aqueous solution (0.5 ml per an animal); fat loading (a mixture of porcine fat and preliminary heated corn oil at 4:1 ratio by volume, at the rate of 5 ml/kg weight 0.5 h post administering the substance studied.
1) “control”—intact animals;
2) “fat”—animals that received fat loading only
3) “compound IV”—animals that received fat loading+compound IV at dose 500 μg/kg body weight;
4) “compound V”—animals that received fat loading+compound V at dose 500 μg/kg body weight.
Statistical processing was carried out using a mono-factorial analysis of variance.

[3] = system: animals with atherogenic loading; conditions: WO 99/01103, similar biological experiment; cited from earlier work
[4] = system: antigen-induced bronchial spasm; conditions: oral and intratracheal route, 50 μg/kg; cited from earlier work
[5] = system: delayed type hypersensitivity; conditions: doses 50 and 500 μg/kg; cited from earlier work
[6] = system: passive cutaneous anaphylaxis; conditions: in vivo; cited from earlier work
[7] = system: carrageenan-induced rat paw edema; assay: Carrageenan rat paw edema; format: in vivo; conditions: 1% gel applied on the paw three times; paw volume 4 hours post carrageenan
Procedure: The experiments were performed on white outbred male rats weighing 250 g. A total amount of animals per an experiment was 12.
The model of carrageenan-induced edema seconding to the method of Winter et al. was used (Winter et al. Studies of the mediators of the acute inflammatory response induced in rats in different sites by carrageenan and turpentine.//J. Phamacol. 1971. V. 104. P. 15-29). 0.1 ml 1% carrageenan solution (SERVA) was subplantarly injected into the right rat paw. The animals were placed into individual chambers. Gel (1%) comprising a substance tested was applied on the paw three times: immediately following carrageenan administration, ate 1 and 2 hours post administration. 4 hours post administration of carrageenan, paw volumes were measured using a plethysmograph (Ugo Basile) Therapeutic effect of the gel was assessed by inhibition degree of inflammatory reaction in comparison with the intact left paw of the given animal and rat paw reaction of the control (untreated) group inflammatory reaction inhibition expressed in percent, was calculated according to the formula: […]

[8] = day 31, blood serum, 500 μg/kg orally (Table 24)
[9] = day 31, blood serum, 500 μg/kg orally (Table 25)

O=C(O)CCC(=O)N[C@@H](Cc1c[nH]cn1)C(=O)O [Compound V, N^α-succinyl-L-histidine]
Number of completely degranulated basophils ([1]; 10^−3 M): 35.3 ± 7.29%
Number of completely degranulated basophils ([1]; 10^−4 M): 31.2 ± 6.8%
Number of completely degranulated basophils ([1]; 10^−5 M): 24.6 ± 10.38%
inhibition at 1000 µM ([1]; 10^−3 M): 10.6 ± 7.6%
inhibition at 100 µM ([1]; 10^−4 M): 18.9 ± 11.8%
inhibition at 10 µM ([1]; 10^−5 M): 44 ± 11.3%
Serum total cholesterol ([2]; Day 28): 52.9 ± 6.5
Serum total triglyceride levels ([2]; Day 28): 62.3 ± 5.4
Serum total cholesterol ([2]; Day 31): 46.3 ± 4.1
Serum total triglyceride levels ([2]; Day 31): 56.0 ± 6.1
lowered LDL cholesterol ([2]; by day 31 of the experiment): 38%
lowered total cholesterol level ([2]; by day 31 of the experiment): 37.8%
Cholesterol, LDL [2, 8]: 41.9 ± 2.7 mg/100 ml
Cholesterol, Total [2, 8]: 46.3 ± 4.1 mg/100 ml
Cholesterol, VLDL [2, 8]: 2.1 ± 0.4 mg/100 ml
Triglycerides, LDL [2, 9]: 23.1 ± 1.9 mg/100 ml
Triglycerides, Total [2, 9]: 56 ± 6.1 mg/100 ml
Triglycerides, VLDL [2, 9]: 22.5 ± 4.4 mg/100 ml

O=C(O)CCCC(=O)NCCc1cnc[nH]1 [Glutaryl histamine, glutaryl histamine, reference compound]
Complete degranulation inhibition (CDI) ([1]; 10^−3 M): 9.3 ± 5.5%
Number of completely degranulated basophils ([1]; 10^−3 M): 31.6 ± 6.33%
Complete degranulation inhibition (CDI) ([1]; 10^−4 M): 24.1 ± 1.1%
Number of completely degranulated basophils ([1]; 10^−4 M): 25.3 ± 3.38%
Complete degranulation inhibition (CDI) ([1]; 10^−5 M): 0%
Number of completely degranulated basophils ([1]; 10^−5 M): 29.8 ± 6.73%
lowering total cholesterol level [3]: 9%
Decrease in bronchial spasm value as compared to the control [4]: > 50%
intensity of delayed type hypersensitivity [5]: significantly lower intensity
manifestations of passive cutaneous anaphylaxis [6]: capable of lowering manifestations

C[C@]12CCC(=O)C=C1CC[C@@H]1[C@@H]2[C@@H](O)C[C@@]2(C)[C@H]1CC[C@]2(O)C(=O)CO [Hydrocortisone, reference compound]
Number of completely degranulated basophils ([1]; 10^−3 M): 10.0 ± 0.7%
Number of completely degranulated basophils ([1]; 10^−4 M): 17.3 ± 0.9%
Number of completely degranulated basophils ([1]; 10^−5 M): 20.0 ± 1.3%
inhibition at 1000 µM ([1]; 10^−3 M): 71 ± 1.6%
inhibition at 100 µM ([1]; 10^−4 M): 48 ± 0.8%
inhibition at 10 µM ([1]; 10^−5 M): 40 ± 0.6%

COC(=O)[C@H](Cc1c[nH]cn1)NC(=O)CCC(=O)O [VI, N^α-succinyl-L-histidine methyl ester]
inhibition of edema [7]: 44%

COC(=O)[C@H](Cc1c[nH]c2ccccc12)NC(=O)CCCC(=O)O [XIII, N^α-glutaryl-L-tryptophane methyl ester]
inhibition of edema [7]: 40%

O=C(O)Cc1ccccc1Nc1c(Cl)cccc1Cl [diclofenac, reference compound]
inhibition of edema [7]: 62%
